Laboratory results as given in patent US11820766B2, “Monoacylglycerol lipase modulators” (Janssen Pharmaceutica NV, priority 2018, dated 2023).

These molecules were tested against T1, human MGL from HeLa cells (Homo sapiens, UniProt Q99685) (assay: In vitro MGL activity assay: [glycerol-1,3-3H]-oleyl glycerol cleavage by MGL from HeLa cells). Conditions: 300 nM [Glycerol-1,3-3H]-oleyl glycerol, one hour.
T1 construct: combining endogenously expressed MGL from HeLa cells with test compounds; endogenous in cells; host or cells: HeLa cells / cell homogenates
T1 sequence (Q99685 1-303): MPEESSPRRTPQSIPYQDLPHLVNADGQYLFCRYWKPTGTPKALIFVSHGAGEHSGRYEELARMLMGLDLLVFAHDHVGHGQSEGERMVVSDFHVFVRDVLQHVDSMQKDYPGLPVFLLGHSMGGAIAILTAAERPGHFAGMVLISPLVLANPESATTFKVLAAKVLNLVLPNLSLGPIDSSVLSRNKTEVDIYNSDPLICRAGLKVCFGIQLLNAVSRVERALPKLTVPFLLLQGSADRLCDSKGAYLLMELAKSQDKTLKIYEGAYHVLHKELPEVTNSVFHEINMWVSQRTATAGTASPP
Type: biochemical
Description: MGL is the predominant hydrolase in HeLa cells/cell homogenates.
For C[C@H]1c2nn(C)c(-c3cc(F)c(F)c(F)c3)c2CCN1C(=O)c1cnc2c(c1)CCCO2 [Example 563, 3,4-Dihydro-2H-pyrano[2,3-b]pyridin-6-yl-[(7S)-2,7-dimethyl-3-(3,4,5-trifluorophenyl)-5,7-dihydro-4H-pyrazolo[3,4-c]pyridin-6-yl]methanone], the IC50 was 329 nM. Cc1nn(C)c2nccc(C(=O)N3CCc4c(nn(C)c4-c4cc(F)c(F)c(F)c4)[C@@H]3C)c12 [Example 425, (1,3-Dimethylpyrazolo[3,4-b]pyridin-4-yl)-[(7S)-2,7-dimethyl-3-(3,4,5-trifluorophenyl)-5,7-dihydro-4H-pyrazolo[3,4-c]pyridin-6-yl]methanone] gave an IC50 of 68.1 nM. In the case of C[C@H]1c2nn(C)c(-c3cccc4occc34)c2CCN1C(=O)c1ccc2ncccc2c1 [Example 535, [(7S)-3-(Benzofuran-4-yl)-2,7-dimethyl-5,7-dihydro-4H-pyrazolo[3,4-c]pyridin-6-yl]-(6-quinolyl)methanone], the IC50 is reported as 18.1 nM. For C[C@H]1c2nn(C)c(-c3cc(F)c(F)c(F)c3)c2CCN1C(=O)c1nc(C(F)(F)F)n2ccncc12 [Example 463, [(7S)-2,7-Dimethyl-3-(3,4,5-trifluorophenyl)-5,7-dihydro-4H-pyrazolo[3,4-c]pyridin-6-yl]-[3-(trifluoromethyl)imidazo[1,5-a]pyrazin-1-yl]methanone], the IC50 was 19.8 nM. For Cc1cc(F)cc(-c2c3c(nn2C)[C@H](C)N(C(=O)c2c(C)nc4ccccn24)CC3)c1 [Example 396, [(7S)-3-(3-Fluoro-5-methyl-phenyl)-2,7-dimethyl-5,7-dihydro-4H-pyrazolo[3,4-c]pyridin-6-yl]-(2-methylimidazo[1,2-a]pyridin-3-yl)methanone], the IC50 was 5.04 nM. Cc1ncc2ccc(C(=O)N3CCc4c(nn(C)c4-c4cc(F)c(F)c(F)c4)[C@@H]3C)cn12 [Example 418, [(7S)-2,7-Dimethyl-3-(3,4,5-trifluorophenyl)-5,7-dihydro-4H-pyrazolo[3,4-c]pyridin-6-yl]-(3-methylimidazo[1,5-a]pyridin-6-yl)methanone] showed an IC50 of 14.6 nM. Molecule COc1nccc(C(=O)N2CCc3c(nn(C)c3-c3cc(F)cc(OC(F)F)c3)[C@@H]2C)c1C [Example 597, [(7S)-3-[3-(Difluoromethoxy)-5-fluoro-phenyl]-2,7-dimethyl-5,7-dihydro-4H-pyrazolo[3,4-c]pyridin-6-yl]-(2-methoxy-3-methyl-4-pyridyl)methanone] has an IC50 of 25 nM. COc1cc(Cl)cc(-c2c3c(nn2C)[C@H](C)N(C(=O)c2c(C)nc4ccccn24)CC3)c1 [Example 395, [(7S)-3-(3-Chloro-5-methoxy-phenyl)-2,7-dimethyl-5,7-dihydro-4H-pyrazolo[3,4-c]pyridin-6-yl]-(2-methylimidazo[1,2-a]pyridin-3-yl) methanone] was tested, and the IC50 was 6.73 nM. With Cc1ccn2c(C(=O)N3CCc4c(nn(C)c4-c4cc(F)c(F)c(F)c4)[C@@H]3C)cnc2c1 [Example 399, [(7S)-2,7-Dimethyl-3-(3,4,5-trifluorophenyl)-5,7-dihydro-4H-pyrazolo[3,4-c]pyridin-6-yl]-(7-methylimidazo[1,2-a]pyridin-3-yl)methanone] the IC50 was 63.2 nM. C[C@H]1c2nn(C)c(-c3cc(F)c(F)c(F)c3)c2CCN1C(=O)c1n[nH]c2cc(F)ccc12 [Example 363, [(7S)-2,7-Dimethyl-3-(3,4,5-trifluorophenyl)-5,7-dihydro-4H-pyrazolo[3,4-c]pyridin-6-yl]-(6-fluoro-1H-indazol-3-yl)methanone] gave an IC50 of 44.1 nM. Work on Cc1ccc(-c2c3c(nn2C)[C@H](C)N(C(=O)c2ccc4ncccc4c2)CC3)cn1 [Example 519, [(7S)-2,7-Dimethyl-3-(6-methyl-3-pyridyl)-5,7-dihydro-4H-pyrazolo[3,4-c]pyridin-6-yl]-(6-quinolyl)methanone] yielded an IC50 of 1450 nM. C[C@H]1c2nn(C)c(-c3cc(F)c(F)c(F)c3)c2CCN1C(=O)c1cnc(-c2ccccn2)n1C [Example 602, [(7S)-2,7-Dimethyl-3-(3,4,5-trifluorophenyl)-5,7-dihydro-4H-pyrazolo[3,4-c]pyridin-6-yl]-[3-methyl-2-(2-pyridyl)imidazol-4-yl]methanone] was tested, and the IC50 was 460 nM. With C[C@H]1c2nn(C)c(-c3cc(F)c(F)c(F)c3)c2CCN1C(=O)c1ccc2nncn2c1 [Example 439, [(7S)-2,7-Dimethyl-3-(3,4,5-trifluorophenyl)-5,7-dihydro-4H-pyrazolo[3,4-c]pyridin-6-yl]-([1,2,4]triazolo[4,3-a]pyridin-6-yl)methanone] the IC50 was 9270 nM. With Cc1ccc2c(C(=O)N3CCc4c(nn(C)c4-c4cc(F)c(F)c(F)c4)[C@@H]3C)nccc2n1 [Example 487, [(7S)-2,7-Dimethyl-3-(3,4,5-trifluorophenyl)-5,7-dihydro-4H-pyrazolo[3,4-c]pyridin-6-yl]-(2-methyl-1,6-naphthyridin-5-yl)methanone] the IC50 was 35.3 nM. Molecule COc1cccc(-c2c3c(nn2C)[C@H](C)N(C(=O)c2ccc4ncccc4c2)CC3)c1 [Example 495, [(7S)-3-(3-Methoxyphenyl)-2,7-dimethyl-5,7-dihydro-4H-pyrazolo[3,4-c]pyridin-6-yl]-(6-quinolyl)methanone] has an IC50 of 47.1 nM.

Same assay, conditions: 300 nM [Glycerol-1,3-3H]-oleyl glycerol, one hour incubation
Molecule C[C@H]1c2nn(C)c(-c3cc(F)c(F)c(F)c3)c2CCN1C(=O)c1cccn2nccc12 [Example 227, (S)-(2,7-Dimethyl-3-(3,4,5-trifluorophenyl)-2,4,5,7-tetrahydro-6H-pyrazolo[3,4-c]pyridin-6-yl)(pyrazolo[1,5-a]pyridin-4-yl)methanone] has an IC50 of 9.51 nM. C[C@H]1c2nn(C)c(-c3cc(F)c(F)c(F)c3)c2CCN1C(=O)c1cccc2cn[nH]c12 [Example 208, (S)-(2,7-Dimethyl-3-(3,4,5-trifluorophenyl)-2,4,5,7-tetrahydro-6H-pyrazolo[3,4-c]pyridin-6-yl)(1H-indazol-7-yl)methanone] showed an IC50 of 34.2 nM. For Cn1nc2c(c1-c1ccccc1)CCN(C(=O)c1cccc3c1OCO3)C2 [Example 28, Benzo[d][1,3]dioxol-4-yl(2-methyl-3-phenyl-2,4,5,7-tetrahydro-6H-pyrazolo[3,4-c]pyridin-6-yl)methanone], the IC50 was 4000 nM. Cn1nc2c(c1-c1ccccc1)CCN(C(=O)c1ccnc3c1ccn3C)C2 [Example 84, (1-Methyl-1H-pyrrolo[2,3-b]pyridin-4-yl)(2-methyl-3-phenyl-2,4,5,7-tetrahydro-6H-pyrazolo[3,4-c]pyridin-6-yl)methanone] gave an IC50 of 48.3 nM. In the case of COCc1cncc(C(=O)N2CCc3c(nn(C)c3-c3cccc(Cl)c3)[C@@H]2C)c1 [Example 120, (S)-(3-(3-Chlorophenyl)-2,7-dimethyl-2,4,5,7-tetrahydro-6H-pyrazolo[3,4-c]pyridin-6-yl)(5-(methoxymethyl)pyridin-3-yl)methanone], the IC50 is reported as 174 nM. Work on Cn1nc2c(c1-c1ccccc1)CCN(C(=O)c1cccc3ccoc13)C2 [Example 33, Benzofuran-7-yl(2-methyl-3-phenyl-2,4,5,7-tetrahydro-6H-pyrazolo[3,4-c]pyridin-6-yl)methanone] yielded an IC50 of 89.9 nM. CC1c2nn(C)c(-c3cc(F)cc(Cl)c3)c2CCN1C(=O)c1ccc2ncccc2c1 (stereo not drawn) [Example 177, (3-(3-Chloro-5-fluorophenyl)-2,7-dimethyl-2,4,5,7-tetrahydro-6H-pyrazolo[3,4-c]pyridin-6-yl)(quinolin-6-yl)methanone] gave an IC50 of 15.9 nM. C[C@H]1c2nn(C)c(-c3cc(F)c(F)c(F)c3)c2CCN1C(=O)c1nccc2c1ccn2C [Example 217, (S)-(2,7-Dimethyl-3-(3,4,5-trifluorophenyl)-2,4,5,7-tetrahydro-6H-pyrazolo[3,4-c]pyridin-6-yl)(1-methyl-1H-pyrrolo[3,2-c]pyridin-4-yl)methanone] was tested, and the IC50 was 5.07 nM. With Cn1nc2c(c1-c1ccccc1)CCN(C(=O)c1cccc3ncccc13)C2 [Example 89, (2-Methyl-3-phenyl-2,4,5,7-tetrahydro-6H-pyrazolo[3,4-c]pyridin-6-yl)(quinolin-5-yl)methanone] the IC50 was 56 nM. In the case of Cc1cc(F)cc(-c2c3c(nn2C)[C@H](C)N(C(=O)c2cnn(C)c2C)CC3)c1 [Example 327, (1,5-Dimethylpyrazol-4-yl)-[(7S)-3-(3-fluoro-5-methyl-phenyl)-2,7-dimethyl-5,7-dihydro-4H-pyrazolo[3,4-c]pyridin-6-yl]methanone], the IC50 is reported as 55.3 nM. With C[C@H]1c2nn(C)c(-c3cc(F)c(F)c(F)c3)c2CCN1C(=O)c1cnn(C)c1C(F)F [Example 330, [5-(Difluoromethyl)-1-methyl-pyrazol-4-yl]-[(7S)-2,7-dimethyl-3-(3,4,5-trifluorophenyl)-5,7-dihydro-4H-pyrazolo[3,4-c]pyridin-6-yl]methanone] the IC50 was 102 nM. With Cn1nc2c(c1-c1ccccc1)CCN(C(=O)c1cccc3nccn13)C2 [Example 80, Imidazo[1,2-a]pyridin-5-yl(2-methyl-3-phenyl-2,4,5,7-tetrahydro-6H-pyrazolo[3,4-c]pyridin-6-yl)methanone] the IC50 was 2330 nM. Work on Cn1nc2c(c1-c1ccccc1)CCN(C(=O)c1cccc3ccsc13)C2 [Example 37, Benzo[b]thiophen-7-yl(2-methyl-3-phenyl-2,4,5,7-tetrahydro-6H-pyrazolo[3,4-c]pyridin-6-yl)methanone] yielded an IC50 of 47.8 nM. COc1cc(C(=O)N2CCc3c(nn(C)c3-c3cc(F)c(F)c(F)c3)[C@@H]2C)c2ccccc2n1 [Example 240, (S)-(2,7-Dimethyl-3-(3,4,5-trifluorophenyl)-2,4,5,7-tetrahydro-6H-pyrazolo[3,4-c]pyridin-6-yl)(2-methoxyquinolin-4-yl)methanone] showed an IC50 of 0.69 nM. C[C@H]1c2nn(C)c(-c3cc(F)cc(F)c3)c2CCN1C(=O)c1cc2nccnc2cc1F [Example 171, (S)-(3-(3,5-Difluorophenyl)-2,7-dimethyl-2,4,5,7-tetrahydro-6H-pyrazolo[3,4-c]pyridin-6-yl)(7-fluoroquinoxalin-6-yl)methanone] showed an IC50 of 13 nM.
